Test results as given in PMC11079024, “Identification of a family of species-selective complex I inhibitors as potential anthelmintics” (Nature Communications, 2024).
Values joined by “and” are separate entries in the source; they are usually repeats but may differ in a detail not shown here. Identical values can stand only once. Like-named read-outs stand apart in the source and are kept apart here.

Experiments:
[1] = system: C. elegans; assay: C. elegans chemical screens of RIKEN NPD libraries at 50 μM (hit identification in KCN survival and development/viability assays); format: cell-based, Caenorhabditis elegans; conditions: screened at 50 μM in triplicate; hit = modified z-score < −3; KCN = KCN survival assay, Dev. & Viability = development/viability assay
[2] = system: L1 wild-type C. elegans; assay: 15-hour motility assay with drug alone (no KCN); format: cell-based, Caenorhabditis elegans; conditions: without KCN, 15-hour; for Value relative to DMSO control, drug alone (without KCN), Mean: mean of replicates; for Value relative to DMSO control, drug alone (without KCN): single replicates
[3] = system: L1 wild-type C. elegans; conditions: for KCN survival assay value relative to DMSO control, Mean / KCN survival assay value relative to DMSO control: drug + KCN, 15-hour; for KCN survival assay value relative to DMSO control, Mean: mean of replicates; for KCN survival assay value relative to DMSO control: single replicates
[4] = system: L1 wild-type C. elegans; assay: whole plant or invertebrate; conditions: Caenorhabditis elegans, 15 h

Compound: O=C(Nc1ccc([N+](=O)[O-])cc1Cl)c1cc(Cl)ccc1O [Niclosamide]
- Hit Type [1]: KCN
- Value relative to DMSO control, drug alone (without KCN), Mean ([2]; 0.025 µM): 1.071
- Value relative to DMSO control, drug alone (without KCN) ([2]; 0.025 µM): 0.995 and 1.216 and 1.349 and 0.779 and 1.019
- Value relative to DMSO control, drug alone (without KCN), Mean ([2]; 0.05 µM): 1.075
- Value relative to DMSO control, drug alone (without KCN) ([2]; 0.05 µM): 1.004 and 1.000 and 1.245 and 1.142 and 0.983
- Value relative to DMSO control, drug alone (without KCN), Mean ([2]; 0.1 µM): 0.944
- Value relative to DMSO control, drug alone (without KCN) ([2]; 0.1 µM): 0.881 and 0.705 and 1.000 and 1.091 and 1.040
- Value relative to DMSO control, drug alone (without KCN), Mean ([2]; 0.2 µM): 0.857
- Value relative to DMSO control, drug alone (without KCN) ([2]; 0.2 µM): 0.621 and 0.780 and 0.965 and 0.960 and 0.957
- Value relative to DMSO control, drug alone (without KCN), Mean ([2]; 0.4 µM): 0.828
- Value relative to DMSO control, drug alone (without KCN) ([2]; 0.4 µM): 0.811 and 0.792 and 0.740 and 0.844 and 0.957
- Value relative to DMSO control, drug alone (without KCN), Mean ([2]; 0.8 µM): 0.938
- Value relative to DMSO control, drug alone (without KCN) ([2]; 0.8 µM): 0.966 and 0.718 and 0.993 and 1.008 and 1.003
- Value relative to DMSO control, drug alone (without KCN), Mean ([2]; 3.1 µM): 0.892
- Value relative to DMSO control, drug alone (without KCN) ([2]; 3.1 µM): 0.775 and 0.855 and 0.898 and 1.068 and 0.863
- Value relative to DMSO control, drug alone (without KCN), Mean ([2]; 6.3 µM): 0.921
- Value relative to DMSO control, drug alone (without KCN) ([2]; 6.3 µM): 0.820 and 1.003 and 0.834 and 0.940 and 1.007
- Value relative to DMSO control, drug alone (without KCN), Mean ([2]; 12.5 µM): 1.018
- Value relative to DMSO control, drug alone (without KCN) ([2]; 12.5 µM): 0.937 and 0.884 and 0.971 and 1.234 and 1.065
- Value relative to DMSO control, drug alone (without KCN), Mean ([2]; 25 µM): 0.884
- Value relative to DMSO control, drug alone (without KCN) ([2]; 25 µM): 0.851 and 0.847 and 1.014 and 1.053 and 0.655
- C. elegans L1 relative motility, 3-hour post 200 µM KCN dilution ([3]; dose 0.05 µM, Mean of replicates): 1.030
- C. elegans L1 relative motility, 3-hour post 200 µM KCN dilution ([3]; dose 0.05 µM, individual replicate (Rep)): 1.077 and 0.962 and 1.145
- C. elegans L1 relative motility, 3-hour post 200 µM KCN dilution ([3]; dose 0.1 µM, Mean of replicates): 0.412
- C. elegans L1 relative motility, 3-hour post 200 µM KCN dilution ([3]; dose 0.1 µM, individual replicate (Rep)): 0.940 and 1.178 and 0.971
- C. elegans L1 relative motility, 3-hour post 200 µM KCN dilution ([3]; dose 0.2 µM, individual replicate (Rep)): 0.475 and 0.408 and 0.354
- C. elegans L1 relative motility, 3-hour post 200 µM KCN dilution ([3]; dose 0.8 µM, Mean of replicates): 0.011
- C. elegans L1 relative motility, 3-hour post 200 µM KCN dilution ([3]; dose 3.1 µM, Mean of replicates): 0.006
- C. elegans L1 relative motility, 3-hour post 200 µM KCN dilution ([3]; dose 3.1 µM, individual replicate (Rep)): 0.000
- C. elegans L1 relative motility, 3-hour post 200 µM KCN dilution ([3]; dose 6.3 µM, Mean of replicates): 0.039
- C. elegans L1 relative motility, 3-hour post 200 µM KCN dilution ([3]; dose 12.5 µM, Mean of replicates): 0.0056
- C. elegans L1 relative motility, 3-hour post 200 µM KCN dilution ([3]; dose 25 µM, Mean of replicates): 0.020
- C. elegans L1 relative motility, 3-hour post 200 µM KCN dilution ([3]; dose […], Mean of replicates): 0.000
- KCN survival assay value relative to DMSO control, Mean ([3]; 0.025 µM): 1.061
- KCN survival assay value relative to DMSO control ([3]; 0.025 µM): 0.962 and 1.145 and 1.077
- KCN survival assay value relative to DMSO control, Mean ([3]; 0.05 µM): 1.030
- KCN survival assay value relative to DMSO control ([3]; 0.05 µM): 1.178 and 0.971 and 0.940
- KCN survival assay value relative to DMSO control, Mean ([3]; 0.1 µM): 0.412
- KCN survival assay value relative to DMSO control ([3]; 0.1 µM): 0.408 and 0.354 and 0.475
- KCN survival assay value relative to DMSO control, Mean ([3]; 0.2 µM): 0.114
- KCN survival assay value relative to DMSO control, Mean ([3]; 0.4 µM): 0.0075
- KCN survival assay value relative to DMSO control, Mean ([3]; 0.8 µM): 0.011
- KCN survival assay value relative to DMSO control, Mean ([3]; 3.1 µM): 0.006
- KCN survival assay value relative to DMSO control, Mean ([3]; 6.3 µM): 0.039
- KCN survival assay value relative to DMSO control, Mean ([3]; 12.5 µM): 0.0056
- KCN survival assay value relative to DMSO control, Mean ([3]; 25 µM): 0.020
- LC50 ([4]; read-out: C. elegans KCN Survival Assay LC50): 0.095 µM
- LC50 ([4]; read-out: C. elegans KCN survival assay LC50): 0.0948 µM
